Legend:
[1] = molecular target: T1, Sodium channel protein type 9 subunit alpha (Homo sapiens, UniProt Q15858); test: Binding affinity to human inactivated voltage-gated Na channel 1.7 expressed in HEK293 cells by patch-clamp technique; type: cell-based
[2] = molecular target: T2, Sodium channel protein type 3 subunit alpha (Rattus norvegicus, UniProt P08104); test: Binding affinity to rat inactivated voltage-gated Na channel 1.3 expressed in human HEK293 cells by patch-clamp technique; type: cell-based
[3] = molecular target: Sodium channel protein type 10 subunit alpha (Rattus norvegicus, UniProt Q62968); test: Binding affinity to voltage-gated Na channel 1.8 in Sprague-Dawley rat L4/L5 DRG neurons by patch-clamp technique
[4] = molecular target: T3, Sodium channel protein type 2 subunit alpha (Homo sapiens, UniProt Q99250); test: Inhibition of voltage-gated Na channel 1.2 (unknown origin)
[5] = molecular target: Sodium channel protein type 8 subunit alpha (Homo sapiens, UniProt Q9UQD0); test: Inhibition of voltage-gated Na channel 1.6 (unknown origin)
[6] = molecular target: Sodium channel protein type 1 subunit alpha (Homo sapiens, UniProt P35498); test: Inhibition of voltage-gated Na channel 1.1 (unknown origin)
[7] = molecular target: T1, Sodium channel protein type 9 subunit alpha; test: Inhibition of voltage-gated Na channel 1.7 (unknown origin)
[8] = molecular target: Potassium voltage-gated channel subfamily A member 5 (Homo sapiens, UniProt P22460); test: Inhibition of voltage-gated K channel 1.5 (unknown origin)
[9] = molecular target: Voltage-gated inwardly rectifying potassium channel KCNH2 (Homo sapiens, UniProt Q12809); test: Inhibition of human ERG channel
[10] = molecular target: Potassium voltage-gated channel subfamily KQT member 1 (Homo sapiens, UniProt P51787); test: Inhibition of voltage-gated K channel 7.1 (unknown origin)
[11] = molecular target: Sodium channel protein type 4 subunit alpha (Homo sapiens, UniProt P35499); test: Inhibition of voltage-gated Na channel 1.4 (unknown origin)
[12] = molecular target: Sodium channel protein type 3 subunit alpha (Homo sapiens, UniProt Q9NY46); test: Inhibition of voltage-gated Na channel 1.3 (unknown origin)
[13] = molecular target: T3, Sodium channel protein type 2 subunit alpha; test: Inhibition of human voltage-gated Na channel 1.2 by cell based patch clamp technique
[14] = molecular target: T1, Sodium channel protein type 9 subunit alpha; test: Inhibition of human voltage-gated Na channel 1.7 by cell based patch clamp technique
[15] = molecular target: Sodium channel protein type 5 subunit alpha (Homo sapiens, UniProt Q14524); test: Inhibition of human voltage-gated Na channel 1.5 by cell based patch clamp technique
[16] = molecular target: Sodium channel protein type 1 subunit alpha (Rattus norvegicus, UniProt P04774); test: Inhibition of rat voltage-gated Na channel 1.1 in dorsal root ganglion neurons by patch clamp technique; type: tissue-based
[17] = molecular target: T2, Sodium channel protein type 3 subunit alpha; test: Inhibition of rat voltage-gated Na channel 1.3 in dorsal root ganglion neurons by patch clamp technique; type: tissue-based
Glutamate receptor 1 = Glutamate receptor 1 (Homo sapiens, UniProt P42261); test: Agonist activity at GluA1 (unknown origin)
[18] = molecular target: GABA-A receptor; alpha-3/beta-3/gamma-2 (Homo sapiens, UniProt P18507+P28472+P34903); test: Modulation of human GABAA alpha3beta3gamma2 expressed in xenopus oocytes assessed as potentiation of GABA-evoked chloride currents; type: cell-based, Oocyte
[19] = molecular target: GABA-A receptor; alpha-1/beta-2/gamma-2 (Homo sapiens, UniProt P14867+P18507+P47870); test: Modulation of human GABA-A alpha1beta2gamma2 expressed in xenopus oocytes assessed as potentiation of GABA-evoked chloride currents; type: cell-based, Oocyte
[20] = molecular target: GABA-A receptor; alpha-2/beta-3/gamma-2 (Homo sapiens, UniProt P18507+P28472+P47869); test: Modulation of human GABAA alpha2beta3gamma2 expressed in xenopus oocytes assessed as potentiation of GABA-evoked chloride currents; type: cell-based, Oocyte
[21] = molecular target: Gamma-aminobutyric acid receptor subunit alpha-5/beta-3/gamma-3 (Homo sapiens, UniProt P28472+P31644+Q99928); test: Modulation of human GABAA alpha5beta3gamma3 expressed in xenopus oocytes assessed as potentiation of GABA-evoked chloride currents; type: cell-based, Oocyte

T1 sequence (Q15858 whole entry): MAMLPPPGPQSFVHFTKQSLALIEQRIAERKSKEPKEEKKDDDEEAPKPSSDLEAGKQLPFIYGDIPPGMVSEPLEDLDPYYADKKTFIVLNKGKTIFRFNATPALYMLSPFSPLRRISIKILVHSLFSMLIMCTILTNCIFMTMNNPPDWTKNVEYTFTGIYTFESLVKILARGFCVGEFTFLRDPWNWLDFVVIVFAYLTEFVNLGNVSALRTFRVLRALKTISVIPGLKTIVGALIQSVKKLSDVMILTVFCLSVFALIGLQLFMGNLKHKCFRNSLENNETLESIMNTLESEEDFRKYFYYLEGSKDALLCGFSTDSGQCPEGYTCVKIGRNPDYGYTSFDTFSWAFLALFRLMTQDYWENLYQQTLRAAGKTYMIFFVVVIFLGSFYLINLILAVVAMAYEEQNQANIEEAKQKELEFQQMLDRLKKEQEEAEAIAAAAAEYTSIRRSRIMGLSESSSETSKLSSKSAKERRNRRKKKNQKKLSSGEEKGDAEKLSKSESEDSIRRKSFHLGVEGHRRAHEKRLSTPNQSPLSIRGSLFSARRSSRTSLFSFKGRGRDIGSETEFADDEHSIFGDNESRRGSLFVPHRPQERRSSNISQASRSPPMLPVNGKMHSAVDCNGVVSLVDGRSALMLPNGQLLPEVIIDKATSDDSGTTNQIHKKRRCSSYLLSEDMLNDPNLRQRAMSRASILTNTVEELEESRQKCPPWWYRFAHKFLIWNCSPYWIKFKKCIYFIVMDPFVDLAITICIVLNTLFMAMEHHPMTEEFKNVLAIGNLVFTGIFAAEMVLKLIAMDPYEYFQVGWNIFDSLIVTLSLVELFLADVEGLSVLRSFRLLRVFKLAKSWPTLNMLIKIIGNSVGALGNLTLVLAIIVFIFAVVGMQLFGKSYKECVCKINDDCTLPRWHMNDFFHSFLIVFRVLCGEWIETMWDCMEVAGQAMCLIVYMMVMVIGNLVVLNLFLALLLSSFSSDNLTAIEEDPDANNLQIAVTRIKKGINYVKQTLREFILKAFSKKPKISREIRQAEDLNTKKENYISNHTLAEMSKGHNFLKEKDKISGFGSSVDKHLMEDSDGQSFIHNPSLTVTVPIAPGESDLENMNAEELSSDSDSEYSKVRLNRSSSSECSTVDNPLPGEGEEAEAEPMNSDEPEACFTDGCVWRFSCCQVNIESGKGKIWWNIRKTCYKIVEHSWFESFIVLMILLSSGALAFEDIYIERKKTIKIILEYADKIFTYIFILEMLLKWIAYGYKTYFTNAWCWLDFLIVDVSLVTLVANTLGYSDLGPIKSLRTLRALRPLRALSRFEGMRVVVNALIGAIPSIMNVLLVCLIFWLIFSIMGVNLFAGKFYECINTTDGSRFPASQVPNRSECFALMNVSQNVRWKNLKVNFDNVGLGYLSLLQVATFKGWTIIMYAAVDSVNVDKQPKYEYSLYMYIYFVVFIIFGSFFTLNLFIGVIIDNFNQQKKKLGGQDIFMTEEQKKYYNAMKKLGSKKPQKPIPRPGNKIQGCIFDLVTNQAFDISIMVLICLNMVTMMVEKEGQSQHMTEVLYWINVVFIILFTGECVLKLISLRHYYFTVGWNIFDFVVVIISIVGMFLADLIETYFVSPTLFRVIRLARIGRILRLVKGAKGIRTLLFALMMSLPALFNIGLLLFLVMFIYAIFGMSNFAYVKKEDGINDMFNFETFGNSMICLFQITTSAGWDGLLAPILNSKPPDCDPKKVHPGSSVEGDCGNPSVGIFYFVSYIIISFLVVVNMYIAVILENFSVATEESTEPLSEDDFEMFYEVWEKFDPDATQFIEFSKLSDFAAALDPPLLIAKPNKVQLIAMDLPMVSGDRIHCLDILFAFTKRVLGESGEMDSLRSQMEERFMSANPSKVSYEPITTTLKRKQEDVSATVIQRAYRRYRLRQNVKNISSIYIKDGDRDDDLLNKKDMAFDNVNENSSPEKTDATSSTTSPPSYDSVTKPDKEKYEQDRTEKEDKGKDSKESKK
T3 sequence (Q99250 whole entry): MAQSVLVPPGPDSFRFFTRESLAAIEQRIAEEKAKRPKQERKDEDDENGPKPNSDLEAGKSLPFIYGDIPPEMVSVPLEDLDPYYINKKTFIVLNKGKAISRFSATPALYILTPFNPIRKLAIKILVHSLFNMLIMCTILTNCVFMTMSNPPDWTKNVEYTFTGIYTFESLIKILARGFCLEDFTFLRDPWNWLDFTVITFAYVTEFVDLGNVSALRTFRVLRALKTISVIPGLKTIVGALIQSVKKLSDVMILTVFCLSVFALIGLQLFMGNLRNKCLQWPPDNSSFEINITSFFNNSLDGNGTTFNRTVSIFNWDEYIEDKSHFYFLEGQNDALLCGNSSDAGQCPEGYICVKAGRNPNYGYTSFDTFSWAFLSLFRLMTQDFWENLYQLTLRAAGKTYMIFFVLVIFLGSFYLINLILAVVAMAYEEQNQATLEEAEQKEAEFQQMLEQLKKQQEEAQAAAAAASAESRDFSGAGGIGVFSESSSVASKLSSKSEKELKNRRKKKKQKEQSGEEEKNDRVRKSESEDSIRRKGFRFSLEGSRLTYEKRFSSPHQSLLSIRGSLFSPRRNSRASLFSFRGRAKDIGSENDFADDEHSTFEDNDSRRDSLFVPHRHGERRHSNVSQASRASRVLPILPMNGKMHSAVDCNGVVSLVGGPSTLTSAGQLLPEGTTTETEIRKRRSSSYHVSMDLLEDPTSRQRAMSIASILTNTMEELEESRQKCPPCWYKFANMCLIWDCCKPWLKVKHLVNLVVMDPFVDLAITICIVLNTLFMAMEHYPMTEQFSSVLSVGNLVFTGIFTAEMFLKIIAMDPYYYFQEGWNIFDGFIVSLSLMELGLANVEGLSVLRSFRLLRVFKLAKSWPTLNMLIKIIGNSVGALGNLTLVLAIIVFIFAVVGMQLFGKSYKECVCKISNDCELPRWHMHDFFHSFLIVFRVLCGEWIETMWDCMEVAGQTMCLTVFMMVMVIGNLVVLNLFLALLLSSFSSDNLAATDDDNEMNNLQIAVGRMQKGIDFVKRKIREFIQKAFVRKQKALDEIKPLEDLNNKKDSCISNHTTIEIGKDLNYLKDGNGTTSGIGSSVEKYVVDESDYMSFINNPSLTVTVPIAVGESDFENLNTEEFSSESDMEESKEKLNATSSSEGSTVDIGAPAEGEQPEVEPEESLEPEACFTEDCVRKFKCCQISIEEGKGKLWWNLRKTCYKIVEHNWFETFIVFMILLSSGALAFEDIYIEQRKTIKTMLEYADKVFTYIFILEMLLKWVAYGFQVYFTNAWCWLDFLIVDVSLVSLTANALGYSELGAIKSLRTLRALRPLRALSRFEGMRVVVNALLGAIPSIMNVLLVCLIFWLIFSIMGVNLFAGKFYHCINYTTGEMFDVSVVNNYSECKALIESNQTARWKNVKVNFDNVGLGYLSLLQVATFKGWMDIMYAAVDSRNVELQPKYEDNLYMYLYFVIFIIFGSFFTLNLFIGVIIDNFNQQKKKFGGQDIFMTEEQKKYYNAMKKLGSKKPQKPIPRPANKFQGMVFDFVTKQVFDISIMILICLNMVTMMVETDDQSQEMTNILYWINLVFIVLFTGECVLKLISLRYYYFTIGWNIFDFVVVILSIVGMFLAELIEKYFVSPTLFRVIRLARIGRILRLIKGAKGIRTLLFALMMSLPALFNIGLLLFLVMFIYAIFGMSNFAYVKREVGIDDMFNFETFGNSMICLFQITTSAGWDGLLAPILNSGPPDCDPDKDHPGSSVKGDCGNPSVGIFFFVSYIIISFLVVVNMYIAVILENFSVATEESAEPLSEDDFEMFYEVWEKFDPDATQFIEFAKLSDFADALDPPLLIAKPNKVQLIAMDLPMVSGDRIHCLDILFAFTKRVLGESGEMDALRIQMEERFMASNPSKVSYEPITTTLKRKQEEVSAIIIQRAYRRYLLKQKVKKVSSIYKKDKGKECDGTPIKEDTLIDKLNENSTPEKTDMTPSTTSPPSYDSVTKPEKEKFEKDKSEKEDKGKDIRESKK
Chain of Potassium voltage-gated channel subfamily KQT member 1 (P51787 whole entry): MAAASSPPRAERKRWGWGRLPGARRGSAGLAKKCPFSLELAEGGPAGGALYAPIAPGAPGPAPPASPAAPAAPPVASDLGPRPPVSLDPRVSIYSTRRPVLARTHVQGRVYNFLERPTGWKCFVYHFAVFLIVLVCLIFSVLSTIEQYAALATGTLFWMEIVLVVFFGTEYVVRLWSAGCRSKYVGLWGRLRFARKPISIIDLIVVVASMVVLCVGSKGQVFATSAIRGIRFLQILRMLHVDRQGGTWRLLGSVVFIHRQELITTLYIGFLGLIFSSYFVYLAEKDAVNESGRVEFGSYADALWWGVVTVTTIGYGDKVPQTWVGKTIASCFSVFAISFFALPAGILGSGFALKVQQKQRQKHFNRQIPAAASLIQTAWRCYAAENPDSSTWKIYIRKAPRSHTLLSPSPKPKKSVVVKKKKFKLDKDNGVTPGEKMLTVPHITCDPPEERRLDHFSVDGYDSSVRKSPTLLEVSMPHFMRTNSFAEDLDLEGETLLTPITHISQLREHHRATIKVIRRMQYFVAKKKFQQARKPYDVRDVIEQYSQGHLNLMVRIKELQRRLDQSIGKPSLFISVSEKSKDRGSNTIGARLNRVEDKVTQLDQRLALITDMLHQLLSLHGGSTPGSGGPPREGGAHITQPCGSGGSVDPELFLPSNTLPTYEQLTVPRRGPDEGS

COC[C@@H](NC(C)=O)C(=O)NCc1ccccc1 [LACOSAMIDE]
IC50 [1]: 182 nM
IC50 [2]: 415 nM
IC50 [3]: 16000 nM

NC(=O)C(c1ccccc1)(c1ccc(F)cc1)c1ccc(F)cc1 [SENICAPOC]
IC50 [4]: > 1000 nM
IC50 [5]: > 1000 nM
IC50 [6]: > 1000 nM
IC50 [7]: > 1000 nM
IC50 [8]: > 1000 nM
IC50 [9]: > 1000 nM
IC50 [10]: > 1000 nM
IC50 [11]: > 1000 nM
IC50 [12]: > 1000 nM

COc1cnc(-c2cccc3c2C[C@H](NC(=O)c2ccc(COCC(F)(F)F)nc2)CO3)cn1
IC50 [13]: > 33000 nM
IC50 [14]: 66 nM
IC50 [15]: 13000 nM

O=C1[C@@H](N2CC[C@H](c3cc(Cl)cc(Cl)c3)C2)CCN1c1ccc(S(=O)(=O)Nc2nccs2)cc1
IC50 [16]: < 2000 nM
IC50 [17]: < 2000 nM

N[C@@H](C[C@@H](C/C=C/c1ccc2ccccc2c1)C(=O)O)C(=O)O
EC50 (Glutamate receptor 1): > 300000 nM

CCN(C(C)=O)c1cccc(-c2ccnc3c(C#N)cnn23)c1 [ZALEPLON]
EC50 [18]: > 1000 nM
EC50 [19]: 290 nM
EC50 [20]: 1630 nM
EC50 [21]: > 1000 nM

Source: ChEMBL document CHEMBL2321869, “Ion channels as therapeutic targets: a drug discovery perspective” (J Med Chem, 2013)
